Measurements published in US8501715B2, “Oxidized lipids and uses thereof in the treatment of inflammatory diseases and disorders” (Vascular Biogenics Ltd., priority 2003, dated 2013).

How the values were obtained:
Apo-E KO mice [1] = assay: Assessment of atherosclerosis: lesion area in the aortic sinus; assay type: in vivo, mouse; details: oral 1 mg/mouse
Apo-E KO mice [2] = assay: Aorta lesion (% from total area); assay type: in vivo; details: oral 1 mg/mouse, 5 feedings every other day every 4 weeks over 12 weeks; 24.5 week old mice; End
Source text: Assessment of Atherosclerosis: Quantification of atherosclerotic fatty streak lesions was done by calculating the lesion size in the aortic sinus as previously described (Paigen et al. Quantitative assessment of atherosclerotic lesions in mice. Atherosclerosis 1987; 68: […]) and by calculating the lesion size in the aorta. Briefly, after perfusion with saline Tris EDTA, the heart and the aorta were removed from the animals and the peripheral fat cleaned carefully. The upper section of the heart was embedded in OCT medium (10.24% w/w polyvinyl alcohol; 4.26% w/w polyethylene glycol; 85.50 w/w nonreactive ingredients) and frozen. […] Sections were evaluated for fatty streak lesions after staining with oil-red O. Lesion areas per section were scored on a grid (Rubin et al. Inhibition of early atherogenesis in transgenic mice by human apoplipoprotein A-I. Nature 1991; 353: 265-267) by an observer counting unidentified, numbered specimens. […]
Their effect on the triglyceride and cholesterol fractions of VLDL was also monitored by FPLC. […]
(§1) Mice were bled prior to feeding (Time 0), after the 2nd set of feeding and at the conclusion of the experiment (End) for determination of lipid profile, lipid fractionation and plasma collection. Atherosclerosis was assessed as described above in the aorta sinus and aorta. […] Weight was recorded every 2 weeks throughout the experiment. […]

[3] = tested on: T-cells from inguinal lymph node; assay: Proliferation assay (stimulation index) of lymph node cells exposed to Human ox-LDL; assay type: in vivo; details: oral 1 mg/mouse every other day for 5 days
Protocol: 6 week old male Apo-E KO mice were fed either 1 mg/mouse L-ALLE (L-ALLE) (n=2) or POVPC (POVPC) (n=3) in 0.2 ml PBS; or PBS alone (CONTROL) (n=3) every other day for 5 days. One week following the last feeding the mice were immunized with a single subcutaneous injection of 50 μg Human oxidized LDL antigen. 7 days later T-cells from inguinal lymph node were prepared as described in Materials and Methods section that follows, and exposed to the sensitizing Human ox-LDL antigen for in-vitro assessment of proliferation. Proliferation, indicating immune reactivity, is expressed as the ratio between incorporation of labeled thymidine into the T-cell's DNA in the presence and absence of human ox-LDL antigen (stimulation index, S.I.).
II. […]
Proliferation was assayed eight days after immunization with the oxidized LDL as follows: Spleens or lymph nodes were prepared by meshing the tissues on 100 mesh screens. […] Incomplete medium was added (10 ml), cells were centrifuge for 7 minutes at 1,700 rpm, resuspended in RPMI medium and counted in a haemocytometer at 1:20 dilution (10 μl cells+190 μl Trypan Blue). Proliferation was measured by the incorporation of [^3H]-Thymidine into DNA in triplicate samples of 100 μl of the packed cells (2.5×10^6 cells/ml) in a 96 well microtiter plate. […]

[4] = FPLC analysis of triglyceride and cholesterol content of VLDL; assay type: in vivo; details: oral 1 mg/mouse, 3 sets over 12 weeks; measured 9 weeks from t=0; FPLC of pooled blood
Protocol: (§2) 24.5 weeks old Apo-E KO mice were fed 1 mg/mouse L-ALLE (triangle) (n=11), D-ALLE (inverted triangle) (n=9) or POVPC (square) (n=10) every other day for 5 days, at 4 weeks intervals over a 12 weeks period. Control mice were fed an identical volume (0.2 ml) and regimen of PBS (circle) (n=10). Triglyceride content (Tg, mg/ml) was measured 9 weeks from t=0, by enzymatic colorimetric method in the VLDL fractions following separation of pooled blood samples on FPLC, as described in the materials and methods section that follows.
as §2, with “Cholesterol” for “Triglyceride”, “(Cholesterol,” for “(Tg,”
FPLC Analysis: Fast Protein Liquid Chromatography analysis of cholesterol and lipid content of lipoproteins was performed using Superose 6 HR 10/30 column (Amersham Pharmacia Biotech, Inc, Peapack, N.J.) on a FPLC system (Pharmacia LKB. FRAC-200, Pharmacia, Peapack, N.J.). A minimum sample volume of 300 μl (blood pooled from 3 mice was diluted 1:2 and filtered before loading) was required in the sampling vial for the automatic sampler to completely fill the 200 μl sample loop. Fractions 10-40 were collected, each fraction contained 0.5 ml. A 250 μl sample from each fraction was mixed with freshly prepared cholesterol reagent or triglyceride reagent respectively, incubated for 5 minutes at 37° C. and assayed spectrophotometrically at 500 nm.
Their effect on the triglyceride and cholesterol fractions of VLDL was also monitored by FPLC. […] male, 24.5 week old Apo-E KO mice were divided into 5 groups. In group A (n=11) mice were fed with 1 mg/mouse L-ALLE suspended in 0.2 ml PBS, administered by gavage, as described above, every other day for 5 days. In group B (n=9) mice were fed with 1 mg/mouse D-ALLE suspended in 0.2 ml PBS, administered per os, as described above, every other day for 5 days. In group C (n=10) mice were fed with 1 mg/mouse POVPC suspended in 0.2 ml PBS, administered by gavage, as described above, every other day for 5 days. […]
as §1

apoE(−/−) mice = details: administration of alpha-galactosylceramide; Tupin et al.; cited from earlier work
apoE(−/−)CD1d(−/−) mice = details: administration of alpha-galactosylceramide; Tupin et al.; cited from earlier work

| SMILES | Sinus Lesion (Apo-E KO mice [1]; 5 feedings every other day every 4 weeks over 12 weeks, 24.5 week old mice, End (12 weeks after first feeding)) | protection from atheromatous progression (Apo-E KO mice [1]; late stage, compared with lesion scores at 24.5 weeks) | Aorta lesion (% from total area) (Apo-E KO mice [2]) | change of Stimulation Index versus PBS ([3]; then immunization with Human oxidized LDL) | Stimulation Index (SI) ([3]; then s.c. immunization with Human oxidized LDL, lymph nodes one week later) | cholesterol content of VLDL [4] | triglyceride content of VLDL [4] | increase in lesion size (apoE(−/−) mice) | Lesion size (apoE(−/−)CD1d(−/−) mice) |
| --- | --- | --- | --- | --- | --- | --- | --- | --- | --- |
| CCCCCCCCCCCCCCCCOC[C@@H](COP(=O)([O-])OCC[N+](C)(C)C)OCCCCC=O [L-ALLE, 3-hexadecyl-2-(5′-oxo-pentanyl)-sn-glycero-1-phosphocholine] | 233056 ± 12746 μm^2 | nearly complete protection | 5.4 % from total area | −78% | 7.3 ± 2.3 | reduction | reduction | – | – |
| CCCCCCCCCCCCCCCCCCCCCCCCCC(=O)N[C@@H](CO[C@H]1O[C@H](CO)[C@H](O)[C@H](O)[C@H]1O)[C@H](O)[C@H](O)CCCCCCCCCCCCCC [alpha-galactosylceramide] | – | – | – | – | – | – | – | 50% | did not affect lesion size |
